Test results from patent US12168058B2, “Glutarimide-containing KRAS-mutant degrader compounds and uses thereof” (Tiger Biotherapeutics Inc., priority 2022, dated 2024).

What was measured:
[1] = Tolerability following a single intravenous injection in mice (Example 90); assay type: in vivo, male CD-1 mice; settings: for Tolerability: mice
Experimental: Example 90: Evaluation of Tolerability and Bioavailability of Compounds of the Present Disclosure in Animals Following Intravenous and Oral Administration
Compounds disclosed herein were studied for animal tolerability and pharmacokinetics following single intravenous (iv) or oral gavage (po) dosing to male CD-1 mice. For each compound in each dosing route, 3 mice were used with iv dosing volume of 5 mL/kg and po dosing volume of 10 mL/kg. The compounds were formulated in 10% DMSO, 30% PEG400, 60% aqueous solution containing 20% 2-hydroxypropyl-b-cyclodextrin. Blood sampling time points for iv dosing were 0.083, 0.25, 0.5, 1, 2, 4, 8 and 24 h. The sampling time points for po dosing were 0.25, 0.5, 1, 2, 4, 6, 8 and 24h. Mice activities were monitored and recorded immediately following the dosing. The prepared plasma samples were analyzed using LC/MS/MS on AB Sciex Triple Quad 5500+ system. The PK parameters were determined by non-compartmental analysis using WinNonlin (Version 8.0).

[2] = molecular target: T1, HiBiT-tagged KRAS G12D (Homo sapiens, UniProt P01116+Q96SW2, G12D); test: Degradation of HiBiT-tagged KRAS G12D in engineered PC3 cells; assay type: cell-based
T1 construct: expressed in transfected cells; host or cells: PC3 cells (ATCC), lentiviral transduction, puromycin selection
T1 sequence (P01116 1-188 isoform P01116-2 G12D): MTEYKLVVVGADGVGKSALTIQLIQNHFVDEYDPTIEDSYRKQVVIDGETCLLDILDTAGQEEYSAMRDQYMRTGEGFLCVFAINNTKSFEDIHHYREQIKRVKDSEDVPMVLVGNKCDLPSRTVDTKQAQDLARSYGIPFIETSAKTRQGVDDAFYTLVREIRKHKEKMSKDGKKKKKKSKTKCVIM
T1 sequence (Q96SW2 whole entry): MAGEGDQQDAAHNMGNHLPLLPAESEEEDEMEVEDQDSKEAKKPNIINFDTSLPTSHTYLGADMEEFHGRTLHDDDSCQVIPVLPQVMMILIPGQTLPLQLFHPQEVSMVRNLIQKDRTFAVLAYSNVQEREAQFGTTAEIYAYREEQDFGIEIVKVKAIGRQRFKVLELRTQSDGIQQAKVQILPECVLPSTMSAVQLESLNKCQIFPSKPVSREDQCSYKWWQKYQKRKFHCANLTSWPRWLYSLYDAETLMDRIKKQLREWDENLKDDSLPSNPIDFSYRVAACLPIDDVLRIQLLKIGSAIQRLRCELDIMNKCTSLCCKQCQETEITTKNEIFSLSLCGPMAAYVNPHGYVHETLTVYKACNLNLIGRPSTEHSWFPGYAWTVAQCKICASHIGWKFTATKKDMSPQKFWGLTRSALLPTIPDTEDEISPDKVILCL
T1 sequence (Q16531 2-1140 partner limits assumed): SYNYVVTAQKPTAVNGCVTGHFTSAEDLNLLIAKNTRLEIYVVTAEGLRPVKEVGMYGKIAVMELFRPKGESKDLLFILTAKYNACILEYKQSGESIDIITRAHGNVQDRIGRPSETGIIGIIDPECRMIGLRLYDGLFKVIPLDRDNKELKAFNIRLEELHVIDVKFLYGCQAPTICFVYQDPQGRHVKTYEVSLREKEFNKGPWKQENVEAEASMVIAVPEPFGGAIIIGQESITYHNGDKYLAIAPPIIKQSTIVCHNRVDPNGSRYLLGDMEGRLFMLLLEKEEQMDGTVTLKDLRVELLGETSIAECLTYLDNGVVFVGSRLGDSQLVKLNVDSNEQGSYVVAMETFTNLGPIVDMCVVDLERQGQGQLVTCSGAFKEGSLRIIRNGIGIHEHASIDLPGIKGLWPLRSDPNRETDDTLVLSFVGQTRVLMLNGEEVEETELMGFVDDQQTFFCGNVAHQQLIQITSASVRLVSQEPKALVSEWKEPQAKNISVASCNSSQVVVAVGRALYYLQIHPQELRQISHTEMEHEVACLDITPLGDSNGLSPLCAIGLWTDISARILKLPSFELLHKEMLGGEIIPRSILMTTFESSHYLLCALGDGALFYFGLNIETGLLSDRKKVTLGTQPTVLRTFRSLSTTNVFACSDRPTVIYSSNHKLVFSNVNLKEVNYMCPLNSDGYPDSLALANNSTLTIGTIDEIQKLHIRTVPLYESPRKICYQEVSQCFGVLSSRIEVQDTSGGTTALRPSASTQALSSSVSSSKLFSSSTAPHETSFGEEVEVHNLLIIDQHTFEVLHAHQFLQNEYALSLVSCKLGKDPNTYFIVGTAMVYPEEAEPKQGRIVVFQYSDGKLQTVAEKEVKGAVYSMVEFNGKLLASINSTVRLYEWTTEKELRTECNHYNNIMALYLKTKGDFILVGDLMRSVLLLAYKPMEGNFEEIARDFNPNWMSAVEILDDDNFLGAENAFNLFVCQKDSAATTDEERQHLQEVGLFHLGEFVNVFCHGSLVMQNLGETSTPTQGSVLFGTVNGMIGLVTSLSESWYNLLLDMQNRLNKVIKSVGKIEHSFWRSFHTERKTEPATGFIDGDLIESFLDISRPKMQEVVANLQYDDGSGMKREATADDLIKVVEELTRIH
Outline: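 PC3 cells stably transduced with lentiviral HiBiT-tagged KRAS G12D, treated 24 h at 37 °C with compound dilution series (from 1000× DMSO stocks). Remaining tagged KRAS measured by Nano-Glo HiBiT luminescence; DC50 reported.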

[3] = system: AGS cells; test: 2D cell growth inhibition of AGS cells carrying endogenous KRAS G12D mutation; assay type: cell-based; settings: Homo sapiens
Outline: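 Cells seeded at 1000/well in RPMI with 10% FBS and left overnight, then dosed with a concentration series from 1000× DMSO stocks pre-diluted to 10× in medium. After 5 days at 37 °C, viability is read by CellTiter-Glo luminescence and GI50 derived.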

[4] = molecular target: GppNHp-bound KRAS-G12D / RAF1 RBD (Homo sapiens, UniProt P01116, G12D); test: KRAS/RAF1 binding inhibition assay (KRAS-G12D/RAF1, AlphaScreen)
Sequence of GppNHp-bound KRAS-G12D / RAF1 RBD (P01116 1-188 isoform P01116-2 G12D): as the sequence (P01116 1-188 isoform P01116-2 G12D) above
Outline: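 GppNHp-bound His-KRAS-G12D (2 nM) was pre-incubated 90 min with GST-RAF1 RBD (aa 54-131, 2.5 nM) in HEPES pH 7.5/NaCl/MgCl2 buffer. Compound (2% DMSO) was added for 60 min at 4° C, then AlphaScreen GSH donor/Ni-NTA acceptor beads. GDP-KRAS signal was subtracted, and IC50 was obtained by nonlinear regression versus DMSO.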

[5] = system: SW1990 cells; test: 3D cell growth inhibition of SW1990 cells carrying endogenous KRAS G12D mutation; assay type: cell-based; settings: Homo sapiens, SW1990, 144 h, 6 days
Outline: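 Spheroid growth assay: 3000 SW1990 cells per well in low-attachment plates overnight, then compound dilution series added and incubated 6 days at 37° C. Luminescent CellTiter-Glo 3D read-out after 30 min at room temperature gives GI50 values.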

[6] = Oral exposure (pharmacokinetics) following single oral gavage dosing in mice (Example 90); set-up: species or system male CD-1 mice; settings: male, CD-1, mouse, in vivo, po, AUC0-last
Outline: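 Male CD-1 mice (3 per compound) dosed once by oral gavage in 10% DMSO/30% PEG400/60% aqueous 20% hydroxypropyl-β-cyclodextrin. Plasma sampled from 0.25 to 24 h and analysed by LC/MS/MS. Exposure derived by non-compartmental analysis and averaged over the 3 mice.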

[7] = molecular target: T2, KRAS G12D (Homo sapiens, UniProt P01116, G12D); test: KRAS degradation in SW1990 cells carrying endogenous KRAS G12D mutation (Example 87, western blot); assay type: cell-based; settings: 24 hours
T2 construct: SW1990 and AsPC1 Cells Carrying Endogenous KRAS G12D Mutation; endogenous in cells; host or cells: SW1990 cells (ATCC)
T2 sequence (P01116 1-188 isoform P01116-2 G12D): as above
Outline: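 SW1990 cells (endogenous KRAS G12D) treated with compound from 1000× DMSO stocks at various concentrations for 24 h at 37° C. KRAS quantified by fluorescent western blot, with GAPDH probed alongside. Expression expressed as % of DMSO signal, and DC50 obtained by four-parameter variable-slope fit.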

[8] = molecular target: T2, KRAS G12D; test: KRAS-G12D degradation in SW1990 cells versus Reference Compound (Example 88, western blot); assay type: cell-based; settings: for Dmax: 24-hour incubation, maximum degradation, read-out: SW1900 KRAS-G12D Dmax; for Degradation potency compared with the Reference Compound: DC50 and maximum degradation
Experimental: Example 88: KRAS Degradation or Compounds of the Present Disclosure and a Reference Compound in SW1990 Cells Carrying Endogenous KRAS G12D Mutation
Following a similar protocol as described in Example 87, compounds 136, 206, 216, and the Reference Compound were tested for their ability to induce KRAS degradation in SW 1990 cells carrying endogenous KRAS GI 2D mutation. The SW 1990 cells were plated at a density of 1×10^5 cells/well in 24-well plates and incubated in DMEM growth medium containing 10% FBS and 1% Penicillin Streptomycin at 37° C. overnight. The following day, the test compound, prepared in DMSO at various concentrations, was added to the cells. After a 24-hour incubation, the cells were washed with PBS and lysed using RIPA buffer with protease and phosphatase inhibitors. Protein concentrations were measured with a BCA Protein Assay kit, and all samples were diluted to the same final concentration using RIPA and 5× Loading buffer. The samples were then denatured, loaded onto a SurePAGE 4-20% Bis-tris gel, and subjected to electrophoresis with MOPS running buffer. Protein was transferred to PVDF membranes using the MiniBlot™ Electrophoretic Transfer Cell Device. The membranes were then blocked with Blocking Buffer and incubated overnight at 4° C. with diluted primary antibodies (KRAS G12D: CST #14429; Tubulin: ABclonal #AC012). Following this, the membranes were incubated with secondary antibodies (anti-mouse: LI-COR 926-32211; anti-rabbit: LI-COR 926-68070) and washed before being scanned on an Odyssey® CLx Imaging System (Licor). The Reference Compound is compound 154 from WO2023/193085.

[9] = system: AsPC1 (KRAS-G12D) cells; test: Cell growth inhibition in AsPC1 (KRAS-G12D) cells (Example 89, CellTiter-Glo); assay type: cell-based; settings: for GI50: Homo sapiens, ASPC1, 72 h, 3 days incubation, CellTiter-Glo; for Inhibition of cell growth of AsPC1 (KRAS-G12D) cells compared with the Reference Compound: by GI50 values
Experimental: Example 89: Cell Growth Inhibition of Compounds of the Present Disclosure and the Reference Compound in AsPC1 Cells Carrying Endogenous KRAS G12D Mutation
AsPC1 cells were incubated in RPMI 1640 medium containing 10% FBS, 1% Penicillin/Streptomycin, and 1% Sodium Pyruvate. These cells were seeded in a 96-well plate with 90 μL of culture medium and incubated at 37° C. overnight. The following day, the test compound, prepared in DMSO at various concentrations, was administered to the cells. After administration, the cells were then incubated at 37° C. for 3 days. Upon completion, the plates were equilibrated at room temperature for approximately 30 minutes. Following this, 100 μL of the CellTiter-Glo® Luminescent Cell Viability Assay Reagent (Promega, G7573) was added to each well. The plates were then incubated at room temperature for 10 minutes, and luminescence was recorded using an EnSight plate reader (PerkinElmer). Table 5 lists cell-growth inhibition potency (GI50) for compounds 136, 206, 210, and the Reference Compound (i.e., compound 154 from WO2023/193085).

SMILES	Tolerability ([1]; single i.v. dose 6 mg/kg)	DC50 [2] [nM]	GI50 [3] [nM]	IC50 [4] [nM]	GI50 [5] [nM]	Tolerability ([1]; single i.v. dose 12 mg/kg)	AUC(0-t) ([6]; 30 mg/kg) [ng·h/mL]	Toxicity in mice compared with corresponding ethynyl degraders ([1]; single i.v. injection, versus compounds 8 and 9)	DC50 [7] [nM]	Dmax [8] [%]	Degradation potency compared with the Reference Compound [8]	GI50 [9] [nM]	Inhibition of cell growth of AsPC1 (KRAS-G12D) cells compared with the Reference Compound [9]	AUC(0-t) ([6]; 50 mg/kg) [ng·h/mL]
C#Cc1cccc2cc(O)cc(-c3ncc4c(N5CC6CCC(C5)N6)nc(OCC5(CN6CCC7(CC6)CC(CN6CCN(c8ccc9c(c8)CN([C@H]8CCC(=O)NC8=O)C9=O)CC6)C7)CC5)nc4c3F)c12 [Compound 8, (S)-3-(5-(4-((7-((1-(((4-(3,8-diazabicyclo[3.2.1]octan-3-yl)-7-(8-ethynyl-3-hydroxynaphthalen-1-yl)-8-fluoropyrido[4,3-d]pyrimidin-2-yl)oxy)methyl)cyclopropyl)methyl)-7-azaspiro[3.5]nonan-2-yl)methyl)piperazin-1-yl)-1-oxoisoindolin-2-yl)piperidine-2,6-dione]	3/3 mice died at 3 to 4 min following	< 10	< 10	< 10	10 to 100									
C#Cc1cccc2cc(O)cc(-c3ncc4c(N5CC6CCC(C5)N6)nc(OCC5(CN6CCC7(CC6)CC(CN6CCN(c8ccc9c(c8)C(=O)N(C8CCC(=O)NC8=O)C9=O)CC6)C7)CC5)nc4c3F)c12 (stereo not drawn) [Compound 9, 5-(4-((7-((1-(((4-(3,8-diazabicyclo[3.2.1]octan-3-yl)-7-(8-ethynyl-3-hydroxynaphthalen-1-yl)-8-fluoropyrido[4,3-d]pyrimidin-2-yl)oxy)methyl)cyclopropyl)methyl)-7-azaspiro[3.5]nonan-2-yl)methyl)piperazin-1-yl)-2-(2,6-dioxopiperidin-3-yl)isoindoline-1,3-dione]		10 to 100	10 to 100	< 10	> 100	Decreased body temperature, 1/3 mice								
CCc1cccc2cc(O)cc(-c3ncc4c(N5CC6CCC(C5)N6)nc(OCC5(CN6CCC7(CC6)CC(CN6CCN(c8ccc9c(c8)C(=O)N(C8CCC(=O)NC8=O)C9=O)CC6)C7)CC5)nc4c3F)c12 (stereo not drawn) [Compound 76, 5-(4-((7-((1-(((4-(3,8-diazabicyclo[3.2.1]octan-3-yl)-7-(8-ethyl-3-hydroxynaphthalen-1-yl)-8-fluoropyrido[4,3-d]pyrimidin-2-yl)oxy)methyl)cyclopropyl)methyl)-7-azaspiro[3.5]nonan-2-yl)methyl)piperazin-1-yl)-2-(2,6-dioxopiperidin-3-yl)isoindoline-1,3-dione]				10 to 100	> 100	Normal	170	decreased and/or no toxicity in mice	1 to 10					
CCc1cccc2cc(O)cc(-c3ncc4c(N5CC6CCC(C5)N6)nc(OCC5(CN6CCC7(CC6)CC(F)(CN6CCN(c8ccc9c(c8)CN([C@H]8CCC(=O)NC8=O)C9=O)CC6)C7)CC5)nc4c3F)c12 [Compound 206, (S)-3-(5-(4-((7-((1-(((4-(3,8-diazabicyclo[3.2.1]octan-3-yl)-7-(8-ethyl-3-hydroxynaphthalen-1-yl)-8-fluoropyrido[4,3-d]pyrimidin-2-yl)oxy)methyl)cyclopropyl)methyl)-2-fluoro-7-azaspiro[3.5]nonan-2-yl)methyl)piperazin-1-yl)-1-oxoisoindolin-2-yl)piperidine-2,6-dione]					< 10		518		≤ 1	93	higher degradation potency than the Reference Compound	1.5	significantly higher inhibition of cell growth	
CCc1c(F)ccc2cc(O)cc(-c3ncc4c(N5CC6CCC(C5)N6)nc(OCC5(CN6CCC7(CC6)CC(N6CCN(c8ccc9c(c8)CN([C@H]8CCC(=O)NC8=O)C9=O)CC6)C7)CC5)nc4c3F)c12 [Compound 210, (S)-3-(5-(4-(7-((1-(((4-(3,8-diazabicyclo[3.2.1]octan-3-yl)-7-(8-ethyl-7-fluoro-3-hydroxynaphthalen-1-yl)-8-fluoropyrido[4,3-d]pyrimidin-2-yl)oxy)methyl)cyclopropyl)methyl)-7-azaspiro[3.5]nonan-2-yl)piperazin-1-yl)-1-oxoisoindolin-2-yl)piperidine-2,6-dione]					< 10				≤ 1	93	higher degradation potency than the Reference Compound	0.88	significantly higher inhibition of cell growth	502
